These results are taken from patent US5683987A, “Therapeutic oligonucleotides targeting the human MDR1 and MRP genes” (The Board of Regents of the University of Nebraska, priority 1995, dated 1997).

pIC50: −log10 of the molar value. “And” between values parts separate entries of the source, which are not always exact repeats. Identical values can stand only once. Like-named read-outs stand apart in the source and are kept apart here.

Data set [1] deals with 8226/Dox4 human myeloma cells. Briefly: Vincristine IC50 summary after MDR-oligo treatment. The format is cell-based. The following applies: oligo 0.2 μM; compared to media control. The protocol: (§1) In vitro testing of MDR-Oligonucleotides was done on the multidrug-resistant (MDR+) RPMI-8226/Dox4 human multiple myeloma cell line (gift of Dr. William Dalton, Univ. Arizona Cancer Ctr., Tucson). Cells were incubated in vitro for 4 days at 37° C. with MDR-oligos at 0.2 μM final concentration; pulsed 18 hr with serial 5-fold dilutions of chemotherapeutic drug (vincristine) from 1×10^-4 M to 2×10^-10 M. Cells were then washed, and incubated for an additional 4 days. Tritiated thymidine (^3 H-TdR) was added for last 18 hr to measure status of cellular proliferation. Controls included MDR^+ 8226 cells similarly treated with vincristine but pretreated either with (a) control ODNs, or (b) culture medium only.

The test system of another data set is 8226/Dox4 cells. As to the kind of experiment: Parsimonious regression model estimates of count and Vincristine IC50. The class given is cell-based, human. The following applies: for Estimated Mean Count (cpm): 3H-TdR count at VCR Dose = 0, oligo alone, media only 159,500; for Fold Increase in drug sensitivity: compared to corresponding oligo control (no drug). The procedure:
as §1
The following mathematical/statistical model was used to analyze the effects of oligos and various drug treatments on targeted tumor cells in these studies. The model is based on experiments which generally involve treatment of tumor cells with one of several ODNs or media only, and with several dose levels of an anti-cancer agent (such as, for example, vincristine (VCR)) or media only. Analysis goals were to model the relationship of cell kill to the dose of VCR (for example), and to compare the effects of the various ODNs.
This final model contained 10 regressor variables.
Various estimates of parameters from the parsimonious model are shown in TABLE 13, which contains the model estimate of the count for each ODN with media only; differences here (when compared to "media only" [no ODN]) reflect the cell kill associated with the ODN alone. TABLE 13 also contains an estimate of IC50 values, the dose of vincristine (VCR) which is estimated to produce an expected count which is exactly half that expected with "media only" [no VCR]. While formal statistical comparisons of the IC50 values of the various ODNs is not possible, an ordering of the ODNs by estimated IC50 values is possible.

In data set [2] the test system is 8226/Dox human myeloma cells. Briefly: Sensitivity of 8226/Dox cells to Vincristine with increasing time after Vincristine exposure. The class given is cell-based. The conditions noted are these: for Relative Sensitization (fold increase) Day 5: Day 5 after Vincristine exposure; for Relative Sensitization (fold increase) Day 7: Day 7 after Vincristine exposure; for Relative Sensitization (fold increase) Day 9: Day 9 after Vincristine exposure. The procedure: As shown in this example, several oligos which target the MDR1 gene are able to sensitize multidrug-resistant cell lines to the cytotoxic effects of the chemotherapeutic agent Vincristine. […] The cells were then washed and seeded into 96-well plates (quadruplicate replicates) for pulsing with tritiated thymidine 3 days later. Cells were harvested the next day (=4th day after drug treatment). Tritiated thymidine uptake was analyzed by liquid scintillation.
As shown in this example, it was determined that there was an increase in sensitivity of multidrug-resistant 8226/Dox human myeloma cells to Vincristine with increasing time of incubation following initial exposure to Vincristine. The experimental conditions were identical to those utilized in obtaining the data shown in Table 7, except that the present experiment had two additional time points.

Data set [3] has as its system 8226/Dox human myeloma cells. As to the kind of experiment: Sensitization of 8226/Dox cells to Vincristine by MDR-oligos in 5% oxygen. The format is cell-based. The conditions noted are these: 5% oxygen. The procedure:
(§2) As shown in this example, several oligos which target the MDR1 gene are able to sensitize multidrug-resistant cell lines to the cytotoxic effects of the chemotherapeutic agent Vincristine. Tumor cells were treated in vitro with 10 μM of the indicated oligo for 4 days at 37° C., then counted, dispensed into individual tubes, and pulsed with Vincristine at various doses (serial 5-fold dilutions) for 3 hrs. The cells were then washed and seeded into 96-well plates (quadruplicate replicates) for pulsing with tritiated thymidine 3 days later. Cells were harvested the next day (=4th day after drug treatment). Tritiated thymidine uptake was analyzed by liquid scintillation.

Data set [4] deals with CEM/VLB10 human leukemia cells. As to the kind of experiment: Sensitization of CEM/VLB10 cells to Vincristine by MDR-oligos in 5% oxygen. The format is cell-based. The conditions noted are these: 5% oxygen; for pIC50: Vincristine IC50 after 4 days with 10 μM oligo, read-out: IC50 dose; for Relative sensitization (fold increase): to Vincristine, 10 μM oligo. The protocol: as §2

In data set [5] the test system is A427 human non-small-cell lung adenocarcinoma cell line. As to the kind of experiment: Sensitization of A427 lung cancer cells to etoposide by MRP-oligos. The format is cell-based. The protocol:
The human non-small-cell lung adenocarcinoma cell line A427 was treated with oligos at various concentrations for 4 days in vitro. The cells then were pulsed with various concentrations of etoposide (range 1.6×10^-4 to 1×10^-6 M) for 3 hrs. Next, cells were trypsinized and seeded by volume into 96-well plates with 12 replicates per treatment condition. Three days later, tritiated thymidine was added and the cells harvested the next day.

The next data set has as its system 8226/Dox cells. As to the kind of experiment: Sensitization of 8226/Dox cells to Vincristine by an MRP-oligo and MDR-ODNs. The class given is cell-based, human. The following applies: for pIC50: Vincristine IC50 after oligo treatment, conditions as Example 2, read-out: IC50 dose; for Relative sensitization (fold increase): to Vincristine, vs medium only. The protocol:
as §2
In this example, experimental conditions were identical to those utilized in obtaining the data in Example 2.

In the case of “OL(12B)mdr: SEQ ID NO 14: CGCGCTCCGG GCAACATG (CGCGCTCCGGGCAACATG; chemistry not given here)”, the “Fold-Increase in sensitivity to drug treatment” value (“Fold-Increase in sensitivity” below) in data set [1] came to 40 fold. Besides, in the data set on 8226/Dox4 cells, the “Estimated Mean Count (cpm)” value is 159,500 cpm and the “Fold Increase in drug sensitivity” value was 17.3 fold.
“OL(12)mdr: SEQ ID NO 12: GCGCGCTCCG GGCAACATGG (GCGCGCTCCGGGCAACATGG; chemistry not given here)”: in data set [1], the “Fold-Increase in sensitivity” value is reported as 200 fold. In addition, in the data set with 8226/Dox4 cells, the “Estimated Mean Count (cpm)” value is given as 159,500 cpm and the “Fold Increase in drug sensitivity” value is recorded as 233 fold.
Regarding “5(1)mdr: SEQ ID NO 10: CCCTACCTCGCGCTCCTTGGAACGGC (CCCTACCTCGCGCTCCTTGGAACGGC; chemistry not given here)”, the results for the “Relative Sensitization (fold increase) Day 5” value in data set [2] (oligo 2 μM) and in data set [2] (oligo 10 μM) were 3.4 fold increase and 2.1 fold increase, respectively. The “Relative Sensitization (fold increase) Day 7” value in data set [2] (oligo 2 μM) is 26.9 fold increase; in data set [2] (oligo 10 μM) it was 20.5 fold increase. Moreover, the “Relative Sensitization (fold increase) Day 9” value in data set [2] (oligo 2 μM) is 724 fold increase; in data set [2] (oligo 10 μM), 423 fold increase. The pIC50 – broadly, the IC50 on a negative log10 scale, so that one unit is a factor of ten – in data set [3] (Vincristine IC50 after 4 days with 10 μM oligo, read-out: IC50 dose) is 6.74; in data set [4], 7.05. Moreover, the “Relative sensitization (fold increase)” value in data set [3] (to Vincristine, 10 μM oligo) is on record as 2.5 fold increase; in data set [4], 111 fold increase.
On to “OL(3)MRP: SEQ ID NO 62, position 2848: CCCTGGACCG CTGACGCCCG (CCCTGGACCGCTGACGCCCG; chemistry not given here)”, for which the “Etoposide (VP-16) Relative Sensitization (fold increase)” value in data set [5] (oligo 10 μM) is 5 fold increase.
On the same count and under the same terms, under “OL(6)MRP: SEQ ID NO 60: GGGCCAGGCT CACGCGCTGC (GGGCCAGGCTCACGCGCTGC; chemistry not given here)” stands 8 fold increase.
Take `CO[C@@H]1[C@@H](OC(N)=O)[C@@H](O)[C@H](Oc2ccc3c(O)c(NC(=O)c4ccc(O)c(CC=C(C)C)c4)c(=O)oc3c2C)OC1(C)C` [Novobiocin, novobiocin, reference compound]: the “Etoposide (VP-16) Relative Sensitization (fold increase)” value in data set [5] (novobiocin used at the same time as VP-16) was 5.0 fold increase; in data set [5] (novobiocin used at the same time as VP-16, listed as novobiocin), “about 5 fold increase”.
In the case of “OL(4)MRP: SEQ ID NO 76: CGATGCCGAC CTTTTCTCC (CGATGCCGACCTTTTCTCC; chemistry not given here)”, the “Etoposide (VP-16) Relative Sensitization (fold increase)” value in data set [5] (oligo 1 μM) is listed as 3 fold increase.
“SJ(36)mdr: SEQ ID NO 39: CCAGGGCTTCTTGGACAACCTA (CCAGGGCTTCTTGGACAACCTA; chemistry not given here)”: in data set [4], the pIC50 is 6.80 and the “Relative sensitization (fold increase)” value amounted to 62 fold increase.
For “OL(5)MRP: SEQ ID NO 48: CTGCGGCCCG GAAAACATCA (CTGCGGCCCGGAAAACATCA; chemistry not given here)”, the “Etoposide (VP-16) Relative Sensitization (fold increase)” value in data set [5] (oligo 10 μM) was 6 fold increase.
Regarding “SJ(34)mdr: SEQ ID NO 5: TCGAATGAGC TCAGGCTTCC (TCGAATGAGCTCAGGCTTCC; chemistry not given here)”, the “Fold-Increase in sensitivity” value in data set [1] is 293 fold.
Take “OL(2)MRP: SEQ ID NO 49: CGGTGATGCT GTTCGTGCCC (CGGTGATGCTGTTCGTGCCC; chemistry not given here)”: in data set [5] (oligo 10 μM), the “Etoposide (VP-16) Relative Sensitization (fold increase)” value was 2.4 fold increase.
As to “OL(10)mdr: SEQ ID NO 11: GCTCCCAGCT TTGCGTGCCC (GCTCCCAGCTTTGCGTGCCC; chemistry not given here)”, the “Fold-Increase in sensitivity” value in data set [1] amounted to 40 fold.
Turning to “OL(6A)mdr: SEQ ID NO 2: GTGCTCAGCC CACGCCCCGG (GTGCTCAGCCCACGCCCCGG; chemistry not given here)”, in the data set with 8226/Dox cells, the pIC50 is 7.06 and the “Relative sensitization (fold increase)” value is 12.5 fold increase.
Turning to “OL(3)mdr: SEQ ID NO 37: TGCCCACCAG AGCCAGCGTC (TGCCCACCAGAGCCAGCGTC; chemistry not given here)”, in data set [4], the pIC50 is 6.70 and the “Relative sensitization (fold increase)” value is 50 fold increase. In addition, in the data set on 8226/Dox cells, the pIC50 was 7.00 and the “Relative sensitization (fold increase)” value was determined as 11 fold increase.
With “OL(14)MRP: SEQ ID NO 44: GCGGGTCGGA GCCATCGGCG (GCGGGTCGGAGCCATCGGCG; chemistry not given here)”, the “Etoposide (VP-16) Relative Sensitization (fold increase)” value in data set [5] (oligo 10 μM) turned out to be 3 fold increase.
`COc1cc([C@@H]2c3cc4c(cc3[C@@H](O[C@@H]3O[C@@H]5CO[C@@H](C)O[C@H]5[C@H](O)[C@H]3O)[C@H]3COC(=O)[C@H]23)OCO4)cc(OC)c1O` [Etoposide (VP-16), etoposide, reference compound]: the pIC50 was 4.44 in data set [5] (Homo sapiens, A-427, read-out: Etoposide (VP-16) IC50, Media Control (no oligo)); 4.30 and 4.22 in data set [5] (read-out: Etoposide (VP-16) IC50, Media Control (no oligo)).
For “5(3)MRP: SEQ ID NO 42: CGGCGGCGGCGGCGCAGGGAGCCGGG (CGGCGGCGGCGGCGCAGGGAGCCGGG; chemistry not given here)”, the “Etoposide (VP-16) Relative Sensitization (fold increase)” value in data set [5] (oligo 10 μM) came out at 5 fold increase.
“SJ(34C)mdr: SEQ ID NO 8: AGCTCAGGCT TCCTGTGGCA (AGCTCAGGCTTCCTGTGGCA; chemistry not given here)”: in data set [1], the “Fold-Increase in sensitivity” value is 2182 fold.
With “SJ(34A)mdr: SEQ ID NO 6: TCGAATGAGC TCAGGCTT (TCGAATGAGCTCAGGCTT; chemistry not given here)”, in data set [1], the “Fold-Increase in sensitivity” value is recorded as more than 7500 fold. Further, in the data set on 8226/Dox4 cells, the “Estimated Mean Count (cpm)” value is on record as 100,300 cpm and the “Fold Increase in drug sensitivity” value is recorded as 188 fold.
Turning to “OL(2)mdr: SEQ ID NO 35: GCAACCAGCA CCCCAGCACC (GCAACCAGCACCCCAGCACC; chemistry not given here)”, in data set [4], the pIC50 was 6.80 and the “Relative sensitization (fold increase)” value is reported as 62 fold increase. In the data set on 8226/Dox cells, the pIC50 was 6.52 and the “Relative sensitization (fold increase)” value came out at 3.7 fold increase.
As to “OL(12A)mdr: SEQ ID NO 13: CGCGCTCCGGGCAACATGGTCC (CGCGCTCCGGGCAACATGGTCC; chemistry not given here)”, the “Fold-Increase in sensitivity” value in data set [1] stood at 375 fold. In addition, in the data set with 8226/Dox4 cells, the “Estimated Mean Count (cpm)” value is 159,500 cpm and the “Fold Increase in drug sensitivity” value is on record as 414 fold.
In the case of “OL(5)mdr: SEQ ID NO 21: TCTGGACTTT GCCCGCCGCC (TCTGGACTTTGCCCGCCGCC; chemistry not given here)”, in data set [4], the pIC50 is 6.82 and the “Relative sensitization (fold increase)” value is reported as 67 fold increase.
As for “5(2)MRP: SEQ ID NO 43: CGGTGGCGCGGGCGGCGGCGGGCACC (CGGTGGCGCGGGCGGCGGCGGGCACC; chemistry not given here)”, the “Etoposide (VP-16) Relative Sensitization (fold increase)” value in data set [5] (oligo 10 μM) is reported as 6 fold increase.
